Patent US20050239753A1, “Methods of inhibition of MMTV-like viruses” (GILEAD SCIENCES, INC., priority 2004, published 2005)

Tests used:
[1] = biological target: T1, MMTV RT (Mouse mammary tumor virus, UniProt P03365); assay: MMTV RT activity, filter-based [33P]dNTP incorporation assay on lysed MMTV particles; format: biochemical; design: MMTV particles were isolated and concentrated from MM5MT cells (ATCC) after induction with dexamethasone and insulin; host or cells: MM5MT cells (virus-producing mouse mammary tumour line), induced with dexamethasone and insulin; lysed virions; details: for potency against MMTV RT relative to 3TCppp: more potent than 3TCppp
Procedure: MMTV particles were isolated and concentrated from MM5MT cells (ATCC) after induction with dexamethasone and insulin as previously described (Fine, D., et al., In Vitro 12:693-701, 1976). Lysed particles were assayed for RT activity using a standard filter-based, [^33P]dNTP incorporation assay (modified from Wu, J., et al., J. Biol. Chem. 268:9980-9985, 1993). Inhibition of the RT activity was measured by adding the test compounds, the acyclic nucleoside diphosphophosphonates and cyclic nucleoside triphosphates, at various concentrations and 50% inhibitory concentrations (IC50) were calculated for each compound. All compounds tested were active against the MMTV RT. […] The activity of AZTppp against the MMTV RT as previously observed was confirmed with an IC50 value of 0.4 μM.

[2] = biological target: T1, MMTV RT; details: cited from earlier work

T1 sequence (P03365 861-1436): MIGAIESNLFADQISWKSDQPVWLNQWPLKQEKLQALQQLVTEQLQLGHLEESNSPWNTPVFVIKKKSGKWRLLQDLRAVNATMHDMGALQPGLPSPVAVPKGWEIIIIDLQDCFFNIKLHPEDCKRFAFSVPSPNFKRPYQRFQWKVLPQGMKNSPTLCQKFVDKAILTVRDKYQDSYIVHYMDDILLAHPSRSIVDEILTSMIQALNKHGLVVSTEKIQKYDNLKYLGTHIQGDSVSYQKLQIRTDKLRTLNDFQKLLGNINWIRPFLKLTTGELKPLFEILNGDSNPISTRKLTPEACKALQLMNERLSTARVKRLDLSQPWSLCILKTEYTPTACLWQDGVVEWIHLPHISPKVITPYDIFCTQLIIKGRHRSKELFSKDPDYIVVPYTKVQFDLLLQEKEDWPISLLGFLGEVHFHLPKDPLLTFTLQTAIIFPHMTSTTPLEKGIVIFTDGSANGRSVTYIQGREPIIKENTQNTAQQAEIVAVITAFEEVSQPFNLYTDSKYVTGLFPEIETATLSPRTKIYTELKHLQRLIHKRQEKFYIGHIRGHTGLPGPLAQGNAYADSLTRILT

Compound	IC50 [1] [µM]	activity against the MMTV RT [1]	potency against MMTV RT relative to 3TCppp [1] [fold]	direct inhibition of the MMTV RT enzyme compared with HIV RT enzyme [2]
C[C@H](Cn1cnc2c(N)ncnc21)OCP(=O)(O)OP(=O)(O)OP(=O)(O)O [PMPApp]	~4	active	25	
Cc1cn([C@H]2C[C@H](N=[N+]=[N-])[C@@H](COP(=O)(O)OP(=O)(O)OP(=O)(O)O)O2)c(=O)[nH]c1=O [AZTppp, reference compound]	0.4			as efficiently as the HIV RT enzyme
Nc1ncnc2c1ncn2CCOCP(=O)(O)OP(=O)(O)OP(=O)(O)O [PMEApp]	~4	active	25	
Nc1ccn([C@@H]2CS[C@H](COP(=O)(O)OP(=O)(O)OP(=O)(O)O)O2)c(=O)n1 [3TCppp, reference compound]	108			
Nc1nc(=O)n([C@@H]2CS[C@H](COP(=O)(O)OP(=O)(O)OP(=O)(O)O)O2)cc1F [FTCppp, reference compound]	44			
